This is an account of results in patent US11066416B2, “Rapafucin derivative compounds and methods of use thereof” (The Johns Hopkins University, priority 2016, dated 2021).

Common to all, as to assay type: cell-based
Assay [1] deals with specific cell lines indicated in each assay. Nature of the assay: Cell proliferation assay (Prolif.), IC50 or single concentration, cell line as indicated in each table. The conditions noted are these: A549 cells; for Prolif, A549: Table 10; for Rel. Prolif., A549: single concentration, response relative to DMSO. The method, then: (§1) Cell Proliferation Assay (Prolif.) Guo et al. (2018) Nat. Chem. 11:254-63. Specific cell lines are indicated in each assay and cultured in complete growth media. Activity is scored according to the IC50 values relative to DMSO control. “Low” indicates an IC50 greater than 600 nM, “Medium” indicates an IC50 between 300 nM and 600 nM “High” indicates an IC50 less than 300 nM. “Rel.Uptake” refers to uptake activity characterization relative to a single concentration assay. “Low” indicates a response greater than 0.6 times the activity relative to DMSO, “Medium” indicates a response between 0.6 and 0.3 times the activity relative to DMSO, “High” indicates a response less than 0.3 times the activity relative to DMSO.

Assay [2] deals with H929. Nature of the assay: Cell proliferation assay (Prolif.), H929. The conditions noted are these: for Prolif. H929: H929 cells, IC50 class relative to DMSO control; for Rel. Prolif., NCI-H929: NCI-H929 cells, single concentration, response relative to DMSO. On the procedure: as §1
Assay [3] has as its system nucleoside uptake (3H-Thymidine). As to the kind of experiment: Rel.Uptake: nucleoside uptake, single concentration assay, cell line as indicated in each table. The conditions noted are these: 293T, nucleoside uptake, response relative to DMSO. The method, then: Nucleoside Uptake Assay (uptake). Nuceloside uptake assays were performed with using 3H-Thymidine as described in Guo et al. (2018) Nat. Chem. 11:254-63. Specific cell lines are indicated in each assay and cultured in complete growth media. Activity is scored according to the IC50 values relative to DMSO control. “Low” indicates an IC50 greater than 600 nM, “Medium” indicates an IC50 between 300 nM and 600 nM “High” indicates an IC50 less than 300 nM. “Rel.Uptake” refers to uptake activity characterization relative to a single concentration assay. “Low” indicates a response greater than 0.6 times the activity relative to DMSO, “Medium” indicates a response between 0.6 and 0.3 times the activity relative to DMSO, “High” indicates a response less than 0.3 times the activity relative to DMSO.

With `CCCC[C@H]1C(=O)N[C@@H](Cc2ccc3ccccc3c2)C(=O)N(C)[C@@H](COC(C)(C)C)C(=O)NCC(=O)N(C)CCC=CC(=O)OCC(C)(C)C(=O)C(=O)N2CCCC[C@H]2C(=O)O[C@H](CCc2cc(OC)c(OC)c(OC)c2)c2cccc(c2)OCC(=O)N1C` [Compound 560], in assay [1], the “Prolif, A549” value is given as “medium” and the “Rel. Prolif., A549” value was “medium”.

As to `CCCC[C@H]1C(=O)N[C@@H](Cc2ccc3ccccc3c2)C(=O)N(C)[C@@H](COC(C)(C)C)C(=O)NCC(=O)N(C)CCC=CC(=O)OCC(C)(C)C(=O)C(=O)N2CCCC[C@H]2C(=O)O[C@H](CCc2ccc(OC)c(OC)c2OC)c2cccc(c2)OCC(=O)N1C` [Compound 561], in assay [1], the “Prolif, A549” value is reported as “medium” and the “Rel. Prolif., A549” value was “medium”.

For the compound `CCCC[C@H]1C(=O)N[C@@H](Cc2ccc3ccccc3c2)C(=O)N(C)[C@@H](COC(C)(C)C)C(=O)NCC(=O)N(C)CCC=CC(=O)OCC(C)(C)C(=O)C(=O)N2CCCC[C@H]2C(=O)O[C@H](CCc2cc(OC)c(OC)cc2OC)c2cccc(c2)OCC(=O)N1C` [Compound 562], in assay [1], the “Prolif, A549” value is “medium” and the “Rel. Prolif., A549” value is listed as “medium”.

Consider `CCCC[C@H]1C(=O)N[C@@H](Cc2ccc3ccccc3c2)C(=O)N(C)[C@@H](COC(C)(C)C)C(=O)NCC(=O)N(C)CCC=CC(=O)OCC(C)(C)C(=O)C(=O)N2CCCC[C@H]2C(=O)O[C@H](CCc2cc(OC)cc(OC)c2OC)c2cccc(c2)OCC(=O)N1C` [Compound 563], for which, in assay [1], the “Prolif, A549” value is given as “low” and the “Rel. Prolif., A549” value was “low”.

Take `CCCC[C@H]1C(=O)N[C@@H](Cc2ccc3ccccc3c2)C(=O)N(C)[C@@H](COC(C)(C)C)C(=O)NCC(=O)N(C)CCC=CC(=O)OCC(C)(C)C(=O)C(=O)N2CCCC[C@H]2C(=O)O[C@H](CCc2c(OC)ccc(OC)c2OC)c2cccc(c2)OCC(=O)N1C` [Compound 564]: in assay [1], the “Prolif, A549” value was “low” and the “Rel. Prolif., A549” value is reported as “low”.

In the case of `CCCC[C@H]1C(=O)N[C@@H](Cc2ccc3ccccc3c2)C(=O)N(C)[C@@H](COC(C)(C)C)C(=O)NCC(=O)N(C)CCC=CC(=O)OCC(C)(C)C(=O)C(=O)N2CCCC[C@H]2C(=O)O[C@H](CCc2ccc(OC)c(OC)c2O)c2cccc(c2)OCC(=O)N1C` [Compound 565], in assay [1], the “Prolif, A549” value is listed as “medium” and the “Rel. Prolif., A549” value is “medium”.

For the compound `CCCC[C@H]1C(=O)N[C@@H](Cc2ccc3ccccc3c2)C(=O)N(C)[C@@H](COC(C)(C)C)C(=O)NCC(=O)N(C)CCC=CC(=O)OCC(C)(C)C(=O)C(=O)N2CCCC[C@H]2C(=O)O[C@H](CCc2cc(O)c(OC)c(OC)c2)c2cccc(c2)OCC(=O)N1C` [Compound 566], in assay [1], the “Prolif, A549” value was “medium” and the “Rel. Prolif., A549” value is given as “medium”.

Regarding `CCCC[C@H]1C(=O)N[C@@H](Cc2ccc3ccccc3c2)C(=O)N(C)[C@@H](COC(C)(C)C)C(=O)NCC(=O)N(C)CCC=CC(=O)OCC(C)(C)C(=O)C(=O)N2CCCC[C@H]2C(=O)O[C@H](CCc2cc(OC)c(OC)cc2O)c2cccc(c2)OCC(=O)N1C` [Compound 567], in assay [1], the “Prolif, A549” value is given as “medium” and the “Rel. Prolif., A549” value is “medium”.

With `CCCC[C@H]1C(=O)N[C@@H](Cc2ccc3ccccc3c2)C(=O)N(C)[C@@H](COC(C)(C)C)C(=O)NCC(=O)N(C)CCC=CC(=O)OCC(C)(C)C(=O)C(=O)N2CCCC[C@H]2C(=O)O[C@H](CCc2cc(F)c(OC)c(OC)c2)c2cccc(c2)OCC(=O)N1C` [Compound 568], in assay [1], the “Prolif, A549” value is on record as “medium” and the “Rel. Prolif., A549” value is recorded as “medium”.

For the compound `CCCC[C@H]1C(=O)N[C@@H](Cc2ccc3ccccc3c2)C(=O)N(C)[C@@H](COC(C)(C)C)C(=O)NCC(=O)N(C)CCC=CC(=O)OCC(C)(C)C(=O)C(=O)N2CCCC[C@H]2C(=O)O[C@H](CCc2cc(OC)c(OC)cc2F)c2cccc(c2)OCC(=O)N1C` [Compound 569], in assay [1], the “Prolif, A549” value is listed as “medium” and the “Rel. Prolif., A549” value was “medium”.

As for `CCCC[C@H]1C(=O)N[C@@H](Cc2ccc3ccccc3c2)C(=O)N(C)[C@@H](COC(C)(C)C)C(=O)NCC(=O)N(C)CCC=CC(=O)OCC(C)(C)C(=O)C(=O)N2CCCC[C@H]2C(=O)O[C@H](CCc2ccc(OC)c(OC)c2F)c2cccc(c2)OCC(=O)N1C` [Compound 570], in assay [1], the “Prolif, A549” value is on record as “medium” and the “Rel. Prolif., A549” value is “medium”.

For `CCCC[C@H]1C(=O)N[C@@H](Cc2ccc3ccccc3c2)C(=O)N(C)[C@@H](COC(C)(C)C)C(=O)NCC(=O)N(C)CCC=CC(=O)OCC(C)(C)C(=O)C(=O)N2CCN(C(=O)OCC3c4ccccc4-c4ccccc43)C[C@H]2C(=O)O[C@H](CCc2ccc(OC)c(OC)c2)c2cccc(c2)OCC(=O)N1C` [Compound 571], in assay [1], the “Prolif, A549” value is “low” and the “Rel. Prolif., A549” value is listed as “low”.

In the case of `CCCC[C@H]1C(=O)N[C@@H](Cc2ccc3ccccc3c2)C(=O)N(C)[C@@H](COC(C)(C)C)C(=O)NCC(=O)N(C)CCC=CC(=O)OCC(C)(C)C(=O)C(=O)N2CCN(C)C[C@H]2C(=O)O[C@H](CCc2ccc(OC)c(OC)c2)c2cccc(c2)OCC(=O)N1C` [Compound 572], in assay [1], the “Prolif, A549” value is given as “medium” and the “Rel. Prolif., A549” value was “medium”.

For `CCCC[C@H]1C(=O)N[C@@H](Cc2ccc3ccccc3c2)C(=O)N(C)[C@@H](COC(C)(C)C)C(=O)NCC(=O)N(C)CCC=CC(=O)OCC(C)(C)C(=O)C(=O)N2CCCC[C@H]2C(=O)O[C@H](CCc2ccc(OC)c(OC)c2)c2cc(ccc2F)OCC(=O)N1C` [Compound 573], in assay [1], the “Prolif, A549” value is on record as “low” and the “Rel. Prolif., A549” value is “low”.

Regarding `CCCC[C@H]1C(=O)N[C@@H](Cc2ccc3ccccc3c2)C(=O)N(C)[C@@H](COC(C)(C)C)C(=O)NCC(=O)N(C)CCC=CC(=O)OCC(C)(C)C(=O)C(=O)N2CCCC[C@H]2C(=O)O[C@H](CCc2ccc(OC)c(OC)c2)c2cc(F)cc(c2)OCC(=O)N1C` [Compound 574], in assay [1], the “Prolif, A549” value is listed as “low” and the “Rel. Prolif., A549” value is listed as “low”.

Turning to `CCCC[C@H]1C(=O)N[C@@H](Cc2ccc3ccccc3c2)C(=O)N(C)[C@@H](COC(C)(C)C)C(=O)NCC(=O)N(C)CCC=CC(=O)OCC(C)(C)C(=O)C(=O)N2CCCC[C@H]2C(=O)O[C@H](CCc2ccc(OC)c(OC)c2)c2ccc(F)c(c2)OCC(=O)N1C` [Compound 576], in assay [1], the “Prolif, A549” value is on record as “medium” and the “Rel. Prolif., A549” value is listed as “medium”.

`COc1ccc(CC[C@H]2OC(=O)[C@@H]3CCCCN3C(=O)C(=O)C(C)(C)COC(=O)C=CCCN(C)C(=O)[C@@H](Cc3ccccc3)NC(=O)CN(C)C(=O)[C@@H](Cc3ccccc3)NC(=O)[C@H](Cc3ccc(OC(=O)N4CCOCC4)cc3)N(C)C(=O)COc3cccc2c3F)cc1OC` [Compound 867]: in assay [2], the “Prolif. H929” value was “low” and the “Rel. Prolif., NCI-H929” value is recorded as “low”.

As to `COc1ccc(CC[C@H]2OC(=O)[C@@H]3CCCCN3C(=O)C(=O)C(C)(C)COC(=O)C=CCCN(C)C(=O)[C@@H](Cc3ccccc3)NC(=O)CN(C)C(=O)[C@@H](Cc3ccccc3)NC(=O)[C@H](Cc3ccc(OC(=O)N4CCOCC4)cc3)N(C)C(=O)COc3cc(F)cc2c3)cc1OC` [Compound 868], in assay [2], the “Prolif. H929” value is “low” and the “Rel. Prolif., NCI-H929” value is recorded as “low”.

Consider `COc1ccc(CC[C@H]2OC(=O)[C@@H]3CCCCN3C(=O)C(=O)C(C)(C)COC(=O)C=CCCN(C)C(=O)[C@@H](Cc3ccccc3)NC(=O)CN(C)C(=O)[C@@H](Cc3ccccc3)NC(=O)[C@H](Cc3ccc(OC(=O)N4CCOCC4)cc3)N(C)C(=O)CCC(=O)Nc3cccc2c3)cc1OC` [Compound 869], for which, in assay [2], the “Prolif. H929” value is on record as “low” and the “Rel. Prolif., NCI-H929” value was “low”.

In the case of `CCCC[C@H]1C(=O)N[C@@H](Cc2ccc3ccccc3c2)C(=O)N(C)[C@@H](COC(C)(C)C)C(=O)NCC(=O)N(C)CCC=CC(=O)OCC(C)(C)C(=O)C(=O)N2CCCC[C@H]2C(=O)O[C@H](CCc2ccc(OC)c(OC)c2)c2cccc(c2F)OCC(=O)N1C` [Compound 1563], the “Prolif, A549” value in assay [1] is “high”. Further, the “Rel. Uptake, 293T” value in assay [3] is “high”.

In the case of `CCCC[C@H]1C(=O)N[C@@H](Cc2ccc3ccccc3c2)C(=O)N(C)[C@@H](COC(C)(C)C)C(=O)NCC(=O)N(C)CCC=CC(=O)OCC(C)(C)C(=O)C(=O)N2CCCC[C@H]2C(=O)O[C@H](CCc2ccc(OC)c(O)c2)c2cccc(c2)OCC(=O)N1C` [Compound 1564], the “Prolif, A549” value in assay [1] is on record as “high”. Also, the “Rel. Uptake, 293T” value in assay [3] is recorded as “high”.

As for `CCCC[C@H]1C(=O)N[C@@H](Cc2ccc3ccccc3c2)C(=O)N(C)[C@@H](COC(C)(C)C)C(=O)NCC(=O)N(C)CCC=CC(=O)OCC(C)(C)C(=O)C(=O)N2CCCC[C@H]2C(=O)O[C@H](CCc2ccc(OC)c(OC)c2)c2cncc(c2)OCC(=O)N1C` [Compound 1565], the “Prolif, A549” value in assay [1] is “low”. In addition, in assay [3], the “Rel. Uptake, 293T” value is “low”.

A word on the IC50: it is the midpoint of a concentration-inhibition curve. Read a high IC50 as a need for much substance. For `CC[C@H](C)[C@H]1C(=O)NCC(=O)N(C)CC/C=C\C(=O)OCC(C)(C)C(=O)C(=O)N2CCCC[C@H]2C(=O)O[C@H](CCc2ccc(OC)c(OC)c2)c2cccc(c2)NC(=O)CCC(=O)N(C)[C@@H](CC(C)C)C(=O)N[C@H](Cc2ccccc2)C(=O)N1C` [Compound 1592], the IC50 in assay [1] (Homo sapiens, Table 17) is < 300 nM. Besides, in assay [3], the “Rel. Uptake, 293T” value is on record as “Low (“Low” indicates a response greater than 0.6 times the activity relative to DMSO)”.
